Consider 30 compounds from patent publication US9624170B2, “4-(piperrazin-1-yl)-pyrrolidin-2-one compounds as monoacylglycerol lipase (MAGL) inhibitors” (TAKEDA PHARMACEUTICAL COMPANY LIMITED, priority 2013, dated 2017).

The target of the first experiment is T1, human MAGL (His-hMAGL) (Homo sapiens, UniProt Q99685).
T1 construct: made in house; host or cells: Escherichia coli BL21(DE3)
T1 sequence (Q99685 1-303): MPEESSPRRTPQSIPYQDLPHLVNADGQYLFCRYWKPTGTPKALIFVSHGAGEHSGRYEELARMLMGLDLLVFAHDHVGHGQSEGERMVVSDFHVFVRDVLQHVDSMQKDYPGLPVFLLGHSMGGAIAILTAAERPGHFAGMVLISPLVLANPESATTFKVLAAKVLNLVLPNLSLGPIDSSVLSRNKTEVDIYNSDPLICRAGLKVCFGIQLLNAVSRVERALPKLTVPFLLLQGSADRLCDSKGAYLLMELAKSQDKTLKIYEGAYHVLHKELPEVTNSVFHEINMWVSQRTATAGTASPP
The experiment is described as follows: Measurement of MAGL inhibitory activity by mass spectrometry. In kind it is biochemical. Conditions: 10 μM test compound; substrate 2-arachidonylglycerol, arachidonic acid by RapidFire-mass spectrometry. In short, it runs like this:
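His-tagged human MAGL was reacted with 150 μM 2-arachidonylglycerol substrate (stock, added by 5 μL) for 10 min at room temperature, then stopped with formic acid. Arachidonic acid product was quantified by RapidFire–triple-quadrupole MS in negative SRM mode, corrected by arachidonic acid-d8, and converted to percent inhibition.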
The inhibition is the change of the read-out against control, counted positive when it falls. Turning to `O=C(c1nccs1)N1CCN(C2CC(=O)N(c3ccc4c(ccn4-c4ccnc(C(F)(F)F)c4)c3)C2)CC1` (stereo not drawn) [Example 109, 4-(4-(1,3-Thiazol-2-ylcarbonyl)piperazin-1-yl)-1-(1-(2-(trifluoromethyl)pyridin-4-yl)-1H-indol-5-yl)pyrrolidin-2-one], the inhibition at 10 µM was 100%.

Consider `O=C(c1nccs1)N1CCN(C2CC(=O)N(c3ccc4[nH]ccc4c3)C2)CC1` (stereo not drawn) [Example 113, 1-(1H-indol-5-yl)-4-(4-(1,3-thiazol-2-ylcarbonyl)piperazin-1-yl)pyrrolidin-2-one], for which the inhibition at 10 µM is 80%.

In the case of `Cc1ccc(-c2cccc(N3CC(N4CCN(C(=O)c5nccs5)CC4)CC3=O)c2)cc1` (stereo not drawn) [Example 90, 1-(4′-methylbiphenyl-3-yl)-4-(4-(1,3-thiazol-2-ylcarbonyl)piperazin-1-yl)pyrrolidin-2-one], the inhibition at 10 µM worked out at 102%.

The same experiment, now with this note: MAGL inhibitory rate, test compound 10 μM, His-hMAGL, substrate 2-arachidonylglycerol, RapidFire-mass spectrometry.
As for `Cc1c(-c2ccc(N3CC(N4CCN(C(=O)c5nccs5)CC4)CC3=O)cc2)cnn1C` (stereo not drawn) [Example 182, 1-(4-(1,5-dimethyl-1H-pyrazol-4-yl)phenyl)-4-(4-(1,3-thiazol-2-ylcarbonyl)piperazin-1-yl)pyrrolidin-2-one], the inhibition at 10 µM was found to be 92%.

As for `O=C(c1nccs1)N1CCN(C2CC(=O)N(c3cccc(-c4ccccc4Oc4ccccc4)c3)C2)CC1` (stereo not drawn) [Example 291, 1-(2′-phenoxybiphenyl-3-yl)-4-(4-(1,3-thiazol-2-ylcarbonyl)piperazin-1-yl)pyrrolidin-2-one], the inhibition at 10 µM amounted to 104%.

In the case of `Cc1cccc(-c2ccc(N3CC(N4CCN(C(=O)c5nccs5)CC4)CC3=O)cc2)n1` (stereo not drawn) [Example 274, 1-(4-(6-methylpyridin-2-yl)phenyl)-4-(4-(1,3-thiazol-2-ylcarbonyl)piperazin-1-yl)pyrrolidin-2-one], the inhibition at 10 µM is 96%.

In the case of `O=C(c1nccs1)N1CCN(C2CC(=O)N(c3ccc(-c4cccc(CO)c4)cc3)C2)CC1` (stereo not drawn) [Example 187, 1-(3′-(hydroxymethyl)biphenyl-4-yl)-4-(4-(1,3-thiazol-2-ylcarbonyl)piperazin-1-yl)pyrrolidin-2-one], the inhibition at 10 µM stood at 96%.

Consider `O=C(c1nccs1)N1CCN(C2CC(=O)N(c3cccc(-c4ccc(F)cc4F)c3)C2)CC1` (stereo not drawn) [Example 296, 1-(2′,4′-difluorobiphenyl-3-yl)-4-(4-(1,3-thiazol-2-ylcarbonyl)piperazin-1-yl)pyrrolidin-2-one], for which the inhibition at 10 µM is 102%.

On to `Cc1c(-c2ccccc2)cccc1N1CC(N2CCN(C(=O)c3nccs3)CC2)CC1=O` (stereo not drawn) [Example 249, 1-(2-methylbiphenyl-3-yl)-4-(4-(1,3-thiazol-2-ylcarbonyl)piperazin-1-yl)pyrrolidin-2-one], for which the inhibition at 10 µM worked out at 96%.

For the compound `O=C(c1nccs1)N1CCN([C@@H]2CC(=O)N(c3ccc4c(c3)CCN4c3cnc(C(F)(F)F)cn3)C2)CC1` [Example 390, (4R)-4-(4-(1,3-thiazol-2-ylcarbonyl)piperazin-1-yl)-1-(1-(5-(trifluoromethyl)pyrazin-2-yl)-2,3-dihydro-1H-indol-5-yl)pyrrolidin-2-one], the inhibition at 10 µM was 96%.

Turning to `O=C(c1cscn1)N1CCN([C@@H]2CC(=O)N(c3ccc4c(c3)CCN4c3ccc(F)cc3)C2)CC1` [Example 429, (4R)-1-(1-(4-fluorophenyl)-2,3-dihydro-1H-indol-5-yl)-4-(4-(1,3-thiazol-4-ylcarbonyl)piperazin-1-yl)pyrrolidin-2-one], the inhibition at 10 µM stood at 100%.

For the compound `O=C(c1nccs1)N1CCN(C2CC(=O)N(c3cccc(-c4ccc(F)c(C(F)(F)F)c4)c3)C2)CC1` (stereo not drawn) [Example 315, 1-(4′-fluoro-3′-(trifluoromethyl)biphenyl-3-yl)-4-(4-(1,3-thiazol-2-ylcarbonyl)piperazin-1-yl)pyrrolidin-2-one], the inhibition at 10 µM was determined as 101%.

As for `O=C(c1nccs1)N1CCN(C2CC(=O)N(c3cccc(-c4cccc5cc[nH]c45)c3)C2)CC1` (stereo not drawn) [Example 320, 1-(3-(1H-indol-7-yl)phenyl)-4-(4-(1,3-thiazol-2-ylcarbonyl)piperazin-1-yl)pyrrolidin-2-one], the inhibition at 10 µM was 100%.

With `O=C(c1cscn1)N1CCN([C@@H]2CC(=O)N(c3ccc4c(c3)CCN4c3ncc(C(F)(F)F)cn3)C2)CC1` [Example 384, (4R)-4-(4-(1,3-thiazol-4-ylcarbonyl)piperazin-1-yl)-1-(1-(5-(trifluoromethyl)pyrimidin-2-yl)-2,3-dihydro-1H-indol-5-yl)pyrrolidin-2-one], the inhibition at 10 µM came to 99%.

Take `O=C1CC(N2CCN(c3ncccn3)CC2)CN1c1cccc(-c2ccccc2Cl)c1` (stereo not drawn) [Example 269, 1-(2′-chlorobiphenyl-3-yl)-4-(4-(pyrimidin-2-yl)piperazin-1-yl)pyrrolidin-2-one]: the inhibition at 10 µM was 101%.

Consider `O=C(c1cscn1)N1CCN([C@@H]2CC(=O)N(c3ccc4c(ccn4-c4ccc(C(F)(F)F)cc4)c3)C2)CC1` [Example 418, (4R)-4-(4-(1,3-Thiazol-4-ylcarbonyl)piperazin-1-yl)-1-(1-(4-(trifluoromethyl)phenyl)-1H-indol-5-yl)pyrrolidin-2-one], for which the inhibition at 10 µM is 96%.

With `O=C(c1nccs1)N1CCN(C2CC(=O)N(c3ccc(-c4ccccc4Cl)cc3)C2)CC1` (stereo not drawn) [Example 188, 1-(2′-chlorobiphenyl-4-yl)-4-(4-(1,3-thiazol-2-ylcarbonyl)piperazin-1-yl)pyrrolidin-2-one], the inhibition at 10 µM stood at 99%.

As for `O=C1CC(N2CCN(c3ncccn3)CC2)CN1c1ccc2c(c1)CCN2c1ncc(C(F)(F)F)cn1` (stereo not drawn) [Example 378, 4-(4-(Pyrimidin-2-yl)piperazin-1-yl)-1-(1-(5-(trifluoromethyl)pyrimidin-2-yl)-2,3-dihydro-1H-indol-5-yl)pyrrolidin-2-one], the inhibition at 10 µM is 95%.

In the case of `COc1nccc(C)c1-c1cccc(N2CC(N3CCN(C(=O)c4nccs4)CC3)CC2=O)c1` (stereo not drawn) [Example 339, 1-(3-(2-methoxy-4-methylpyridin-3-yl)phenyl)-4-(4-(1,3-thiazol-2-ylcarbonyl)piperazin-1-yl)pyrrolidin-2-one], the inhibition at 10 µM was found to be 100%.

Take `CS(=O)(=O)Nc1ccccc1-c1cccc(N2CC(N3CCN(C(=O)c4nccs4)CC3)CC2=O)c1` (stereo not drawn) [Example 302, N-(3′-(2-oxo-4-(4-(1,3-thiazol-2-ylcarbonyl)piperazin-1-yl)pyrrolidin-1-yl)biphenyl-2-yl)methanesulfonamide]: the inhibition at 10 µM worked out at 98%.

As for `O=C(c1nccs1)N1CCN(C2CC(=O)N(c3ccc4c(c3)CCN4C(=O)Cc3cccc(Cl)c3)C2)CC1` (stereo not drawn) [Example 394, 1-(1-((3-Chlorophenyl)acetyl)-2,3-dihydro-1H-indol-5-yl)-4-(4-(1,3-thiazol-2-ylcarbonyl)piperazin-1-yl)pyrrolidin-2-one], the inhibition at 10 µM turned out to be 98%.

For `O=C(c1nccs1)N1CCN(C2CC(=O)N(c3ccc(-c4cccs4)cc3)C2)CC1` (stereo not drawn) [Example 218, 4-(4-(1,3-thiazol-2-ylcarbonyl)piperazin-1-yl)-1-(4-(2-thienyl)phenyl)pyrrolidin-2-one], the inhibition at 10 µM is 99%.

As to `CC(C)(C)OC(=O)N1CCc2cc(N3CC(N4CCN(C(=O)c5nccs5)CC4)CC3=O)ccc21` (stereo not drawn) [Example 372, tert-Butyl 5-(2-oxo-4-(4-(1,3-thiazol-2-ylcarbonyl)piperazin-1-yl)pyrrolidin-1-yl)indoline-1-carboxylate], the inhibition at 10 µM stood at 101%.

Regarding `O=C1CC(N2CCN(c3ncccn3)CC2)CN1c1ccc2c(ccn2-c2ccnc(C(F)(F)F)c2)c1` (stereo not drawn) [Example 361, 4-(4-(pyrimidin-2-yl)piperazin-1-yl)-1-(1-(2-(trifluoromethyl)pyridin-4-yl)-1H-indol-5-yl)pyrrolidin-2-one], the inhibition at 10 µM was determined as 92%.

For `O=C(c1nccs1)N1CCN(C2CC(=O)N(c3cc(F)cc(-c4ccccc4Cl)c3)C2)CC1` (stereo not drawn) [Example 350, 1-(2′-chloro-5-fluorobiphenyl-3-yl)-4-(4-(1,3-thiazol-2-ylcarbonyl)piperazin-1-yl)pyrrolidin-2-one], the inhibition at 10 µM was 104%.

In the case of `O=C(c1nccs1)N1CCN(C2CC(=O)N(c3cc(F)cc(-c4ccccc4)c3)C2)CC1` (stereo not drawn) [Example 242, 1-(5-fluorobiphenyl-3-yl)-4-(4-(1,3-thiazol-2-ylcarbonyl)piperazin-1-yl)pyrrolidin-2-one], the inhibition at 10 µM is 99%.

As for `O=C(c1nccs1)N1CCN([C@@H]2CC(=O)N(c3ccc4c(ccn4-c4ccnc(C(F)(F)F)c4)c3)C2)CC1` [Example 246, (4R)-4-(4-(1,3-thiazol-2-ylcarbonyl)piperazin-1-yl)-1-(1-(2-(trifluoromethyl)pyridin-4-yl)-1H-indol-5-yl)pyrrolidin-2-one], the inhibition at 10 µM was determined as 98%.

As for `O=C(c1nccs1)N1CCN(C2CC(=O)N(c3cccc(-c4ccc(C(F)(F)F)cc4Cl)c3)C2)CC1` (stereo not drawn) [Example 305, 1-(2′-chloro-4′-(trifluoromethyl)biphenyl-3-yl)-4-(4-(1,3-thiazol-2-ylcarbonyl)piperazin-1-yl)pyrrolidin-2-one], the inhibition at 10 µM was found to be 96%.

Regarding `O=C(c1nccs1)N1CCN(C2CC(=O)N(c3cccc(-c4cnccc4Cl)c3)C2)CC1` (stereo not drawn) [Example 370, 1-(3-(4-chloropyridin-3-yl)phenyl)-4-(4-(1,3-thiazol-2-ylcarbonyl)piperazin-1-yl)pyrrolidin-2-one], the inhibition at 10 µM amounted to 101%.

In the case of `Cc1ncccc1-c1cccc(N2CC(N3CCN(c4ncccn4)CC3)CC2=O)c1` (stereo not drawn) [Example 256, 1-(3-(2-Methylpyridin-3-yl)phenyl)-4-(4-(pyrimidin-2-yl)piperazin-1-yl)pyrrolidin-2-one], the inhibition at 10 µM was determined as 102%.
